# Results published in US10815534B2, “Methods and materials for treating estrogen receptor positive breast cancer” (Mayo Foundation for Medical Education and Research, priority 2016, dated 2020).
# Columns and labels:
# [1] = system: human lymphoblastoid cells; assay: Sensitivity of human lymphoblastoid cell lines selected by rs6990851 genotype (AA, AG, GG) to aromatase inhibitors; format: cell-based; settings: rs6990851 GG versus AA and AG lymphoblastoid cells
# [2] = system: ERα+ breast cancer cells; assay: Sensitization of ERα+ breast cancer cells by overexpression of CSMD1; format: cell-based; settings: ERα+ breast cancer cells overexpressing CSMD1
# [3] = system: letrozole resistant cells; assay: Sensitization of letrozole resistant cells by overexpression of CSMD1; format: cell-based; settings: letrozole resistant cells overexpressing CSMD1
# [4] = biological target: T1, ERα (Homo sapiens, UniProt P03372); settings: 0-40 μM, traces above the background
# T1 sequence (P03372 1-595): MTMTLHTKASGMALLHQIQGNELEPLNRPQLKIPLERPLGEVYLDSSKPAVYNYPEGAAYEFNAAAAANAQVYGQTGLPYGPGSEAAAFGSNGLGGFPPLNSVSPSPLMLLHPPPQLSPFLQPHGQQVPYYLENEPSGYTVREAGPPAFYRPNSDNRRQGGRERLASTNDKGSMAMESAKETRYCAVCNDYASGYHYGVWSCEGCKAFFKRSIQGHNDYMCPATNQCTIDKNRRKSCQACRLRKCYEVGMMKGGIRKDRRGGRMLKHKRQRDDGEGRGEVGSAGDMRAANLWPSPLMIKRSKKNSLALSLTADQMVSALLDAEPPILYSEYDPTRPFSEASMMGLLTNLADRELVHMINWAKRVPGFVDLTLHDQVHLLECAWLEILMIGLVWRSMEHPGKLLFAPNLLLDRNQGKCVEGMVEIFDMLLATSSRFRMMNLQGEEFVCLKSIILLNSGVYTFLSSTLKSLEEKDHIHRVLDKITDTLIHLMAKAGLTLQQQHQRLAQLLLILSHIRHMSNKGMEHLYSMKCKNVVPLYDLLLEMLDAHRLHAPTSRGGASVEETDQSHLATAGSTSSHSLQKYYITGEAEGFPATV
# [5] = biological target: T1, ERα; settings: FIG. 7, ERα/GADPH fold change
SMILES,sensitivity of homozygous GG variant cells to treatment [1],sensitization by CSMD1 overexpression [2],sensitization by CSMD1 overexpression [3],direct binding to ERα (SPR sensograms) [4],ERα degradation [5]
CC(C)(C#N)c1cc(Cn2cncn2)cc(C(C)(C)C#N)c1 [anastrozole],more sensitive,sensitized,sensitized,–,–
N#Cc1ccc(C(c2ccc(C#N)cc2)n2cncn2)cc1 [letrozole],not observed,–,not,No interactions were observed,not
